{
  "source": "patent US11385234B2",
  "about": "“Methods and systems for detecting an analyte or classifying a sample” (Commonwealth Scientific and Industrial Research Organisation, priority 2012, dated 2022)",
  "key": {"[1]": {"molecular_target": "SGSR-112 (BRET^2 tagged str-112) (Caenorhabditis elegans, UniProt O16913)", "sequence (O16913 entry or part of it)": "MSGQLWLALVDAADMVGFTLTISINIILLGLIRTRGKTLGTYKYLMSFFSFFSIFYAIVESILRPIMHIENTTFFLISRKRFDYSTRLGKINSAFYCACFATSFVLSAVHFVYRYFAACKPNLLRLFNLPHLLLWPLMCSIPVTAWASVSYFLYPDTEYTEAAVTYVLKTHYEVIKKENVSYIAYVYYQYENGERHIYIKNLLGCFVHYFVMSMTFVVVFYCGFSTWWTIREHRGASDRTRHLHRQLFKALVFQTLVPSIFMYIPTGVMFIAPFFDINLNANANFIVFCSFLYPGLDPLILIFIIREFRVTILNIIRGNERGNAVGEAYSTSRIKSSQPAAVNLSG", "experiment": "BRET^2 response of SGSR-112 to volatile ligands, plate based", "format": "biochemical, C. elegans", "excerpt": "(§1) SGSRs are chimaeras of C. elegans str-112, str-113, str-114, str-115, str-116 and str-114/113 with the BRET^2 tags GFP^2 and RLuc or RLuc2 inserted in the third intracellular loop and at the C-terminus, respectively. The positions of the third intracellular loops of STR proteins were predicted using “TMAP” an algorithm from “The Biology Workbench” (a web-based tool for prediction of transmembrane segments http.//seqtool.sdsc.edu). These were named SGSR-112, SGSR-113, SGSR-114/113, SGSR-114, SGSR-115 and SGSR-116.\n(§2) Except for SGSR-112, which was commercially synthesised, SGSR expression cassettes were designed and made by introducing multiple restriction sites into the relevant gene-specific PCR primers. PCR products containing those sites were cloned into TOPO PCR vectors (Invitrogen) and then digested with the corresponding restriction enzymes (REs) and ligated into the expression cassettes.\n(§3) The inventors selected a number of specific volatiles (including 1-hexanol, 1 butanol, butane-2,3-dione, 3-hydroxybutanone, 2-pentanone and 2 nonanone) for further testing based on GC-MS analysis of the headspace of OP50 bacteria grown on LB. […] This is the first time that a volatile ligand (or indeed any ligand) has been identified for a BRET-based GPCR sensor, in the absence of prior knowledge of the ligand based on research with the unmodified parental GPCR."}, "[2]": {"tested_on": "SGSR-113 (BRET^2 tagged str-113)", "experiment": "BRET^2 response of SGSR-113 to volatile ligands, plate based", "format": "biochemical, C. elegans", "excerpt": "as §1, §2, §3"}, "[3]": {"tested_on": "SGSR-114/113 (BRET^2 tagged str-114/113 chimera)", "experiment": "BRET^2 response of SGSR-114/113 to volatile ligands, plate based", "format": "biochemical, C. elegans", "excerpt": "as §1, §2\nThe SGSR 114/113 chimera was constructed by modifying C. elegans SGSR-113 (by replacing the first fragment of str-13, 113-1 using the restriction sites NcoI and BspEI in the cassette with the corresponding fragment of str-114, str-114-1). Str114-1 contains the first 720 str-114 nucleotides of, corresponding to its first 240 amino acids and was amplified by high fidelity PCR using primers incorporating the restriction sites, NcoI at the 5′ end and BspEI at the 3′ end.\nas §3"}, "GFP^2—MBP—RLuc2": {"molecular_target": "GFP^2—MBP—RLuc2 (Escherichia coli, UniProt P0AEX9)", "experiment": "BRET^2 tagged MBP sugar assay, plate reader", "format": "binding", "details": "0.1 mM sugar, 30 minutes at 28° C., 1 μM protein", "description": "1 μM purified protein was used for all the energy transfer assays (final volume of 100 μL). […] Purified protein was incubated with the sugar dissolved in double deionised water or water for 30 minutes at 28° C.\nBRET ratios were calculated as the ratio of maximum acceptor emission intensity to maximum donor emission intensity.\nAll data analysis was carried out using GraphPad Prism (version 5 for Windows, Graphpad Software, San Diego, Calif., USA). All data will be reported as means± standard deviation (SD) unless otherwise stated in the text. Two-tailed unpaired t-tests will be performed using Graphpad prism. Statistical significance is defined as p<0.05."}, "thrombin": {"molecular_target": "T1, thrombin (Bos taurus, UniProt P00735)", "T1 construct": "purchased Amersham Biosciences", "experiment": "Hirudin pre-incubation in thrombin cleavage assay of GFP^2-RG-RLuc (BRET^H ratio, SDS-PAGE)", "format": "biochemical", "description": "Various concentrations of thrombin were added to purified GFP^2-RG-RLuc biosensor and incubated at 30° C. for 90 minutes. To measure the extent of thrombin cleavage the sample mixture following incubation and the native CLZ solution were pumped from separate syringes into the two inlet channels and allowed to flow through the main channel. Diffusion between the two streams induced a BRET reaction at the interface. Recombinant hirudin from yeast (Sigma) was incubated with thrombin at room temperature for ten minutes prior to the protease assay.\nTo confirm complete thrombin cleavage of the GFP^2-RG-RLuc biosensor, SDS-PAGE analysis was carried out. Proteins (2.5 μg) were diluted in 1× sample loading buffer (Invitrogen) for SDS-gel electrophoresis in a 12% Bis-Tris gel with MOPS running buffer (NuPAGE, Invitrogen). Bands were stained with Fast Stain™ (Fisher) and then visualised.\nUsing the microplate spectrometer, hybrid BRET ratios were calculated as the ratio of bioluminescence emissions measured at 500 nm and 470 nm. Using the microchip system, the hybrid BRET ratio was calculated as ratio of the long wavelength emission (515 nm-555 nm) to the short wavelength emission (430 nm-455 nm) (Pfleger and Eidne, 2006). To allow comparison between the two different detection systems, the Hybrid BRET ratios were normalized by expressing them as a multiple of the BRET ratio without added thrombin, in the same measurement system. All data are reported as means±standard deviation (SD). Two-tailed unpaired t-tests were performed using Graphpad prism (version 5.00 for Windows, Graphpad Software, San Diego, Calif., USA). Statistical significance is defined as p<0.05."}},
  "data": [
    {"molecule": "CCCC(C)=O", "note": "[2-pentanone]", "values": [
      {"measurement": "EC50", "setting": "[1]", "result": 0.15, "unit": "nM"},
      {"measurement": "BRET^2 response to volatile ligand", "setting": "[1]; 1 μM of odorant", "result": "tested positive"},
      {"measurement": "BRET^2 response to volatile ligand", "setting": "[2]; 1 μM of odorant", "result": "tested positive"},
      {"measurement": "BRET^2 response to volatile ligand", "setting": "[3]; 1 μM of odorant", "result": "tested positive"},
      {"measurement": "detectable level", "setting": "[3]; in vitro", "result": "parts per billion levels (nM) levels"}
    ]},
    {"molecule": "CCCCCCO", "note": "[1-hexanol]", "values": [
      {"measurement": "detectable level", "setting": "[2]; in vitro", "result": "parts per billion (nM) levels"}
    ]},
    {"molecule": "O=C(CO)[C@@H](O)[C@H](O)[C@H](O)CO", "note": "[fructose]", "values": [
      {"measurement": "response of BRET biosensor to sugar", "setting": "GFP^2—MBP—RLuc2", "result": "did not respond"}
    ]},
    {"molecule": "maltotriose", "values": [
      {"measurement": "amplitude of the change in BRET ratio", "setting": "GFP^2—MBP—RLuc2", "result": 17.03, "unit": "%"}
    ]},
    {"molecule": "hirudin", "values": [
      {"measurement": "BRET^H ratio with pre-addition of hirudin", "setting": "thrombin; 54 nM thrombin pre-treated with 2 units hirudin, 10 minutes, room temperature", "result": "1.08±0.14"},
      {"measurement": "effect of hirudin on thrombin induced reduction in BRET^H ratio", "setting": "thrombin; 2 units hirudin, 10 minutes, room temperature", "result": "prevented the thrombin induced reduction"},
      {"measurement": "effect of hirudin on cleavage of fusion protein, SDS-PAGE", "setting": "thrombin; 2 units hirudin, SDS-PAGE lane 6", "result": "inhibited the formation of the two components"}
    ]},
    {"molecule": "OC[C@H]1O[C@H](OC[C@H]2O[C@H](O[C@]3(CO)O[C@H](CO)[C@@H](O)[C@@H]3O)[C@H](O)[C@@H](O)[C@@H]2O)[C@H](O)[C@@H](O)[C@H]1O", "note": "[raffinose]", "values": [
      {"measurement": "response of BRET biosensor to sugar", "setting": "GFP^2—MBP—RLuc2", "result": "did not respond"}
    ]}
  ]
}
